In PubChem BioAssay (NCI):
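1) Cells in 96-well plates. 2) Compound, 48 h, 5 concentrations. 3) Linear interpolation between surrounding doses. 4) Unreached endpoint = highest concentration. GI50 = concentration required for 50% inhibition of growth. At the TGI there is no net growth.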

Assays:
Experiment in all cases: DTP human tumour cell line panel, 48 h
[1] = tested on: 786-0 renal
[2] = tested on: A498 renal
[3] = tested on: A549 NSCLC
[4] = tested on: ACHN renal
[5] = tested on: BT-549 breast
[6] = tested on: CAKI-1 renal
[7] = tested on: CCRF-CEM leukemia
[8] = tested on: COLO 205 colon
[9] = tested on: DU-145 prostate
[10] = tested on: HCC-2998 colon
[11] = tested on: HCT-116 colon
[12] = tested on: HCT-15 colon
[13] = tested on: HL-60(TB) leukemia
[14] = tested on: HOP-62 NSCLC
[15] = tested on: HOP-92 NSCLC
[16] = tested on: HS 578T breast
[17] = tested on: HT29 colon
[18] = tested on: IGROV1 ovarian
[19] = tested on: K-562 leukemia
[20] = tested on: LOX IMVI melanoma
[21] = tested on: M14 melanoma
[22] = tested on: MALME-3M melanoma
[23] = tested on: MCF7 breast
[24] = tested on: MDA-MB-231 breast
[25] = tested on: MDA-MB-435
[26] = tested on: MDA-N
[27] = tested on: NCI-H226 lung
[28] = tested on: NCI-H23 lung
[29] = tested on: NCI-H460 lung
[30] = tested on: NCI-H522 lung
[31] = tested on: NCI/ADR-RES ovarian
[32] = tested on: OVCAR-3 ovarian
[33] = tested on: OVCAR-4 ovarian
[34] = tested on: OVCAR-5 ovarian
[35] = tested on: OVCAR-8 ovarian
[36] = tested on: PC-3 prostate
[37] = tested on: RXF 393 renal
[38] = tested on: SF-268 CNS
[39] = tested on: SF-295 CNS
[40] = tested on: SF-539 CNS
[41] = tested on: SK-MEL-2 melanoma
[42] = tested on: SK-MEL-28 melanoma
[43] = tested on: SK-MEL-5 melanoma
[44] = tested on: SK-OV-3 ovarian
[45] = tested on: SN12C renal
[46] = tested on: SNB-19 CNS
[47] = tested on: SNB-75 CNS
[48] = tested on: SW-620 colon
[49] = tested on: TK-10 renal
[50] = tested on: U251 CNS
[51] = tested on: UACC-257 melanoma
[52] = tested on: UACC-62 melanoma
[53] = tested on: UO-31 renal
[54] = tested on: EKVX NSCLC
[55] = tested on: KM12 colon
[56] = tested on: MOLT-4 leukemia
[57] = tested on: RPMI-8226 leukemia
[58] = tested on: SR leukemia
[59] = tested on: T-47D breast

O=c1c2ccccc2nc(N/N=C/c2ccccc2O)n1-c1ccccc1
TGI [1]: 2.86 µM
TGI [2]: > 100 µM
TGI [3]: > 100 µM
TGI [4]: > 100 µM
TGI [5]: > 100 µM
TGI [6]: > 100 µM
TGI [7]: > 100 µM
TGI [8]: > 100 µM
TGI [9]: > 100 µM
TGI [10]: > 100 µM
TGI [11]: 8.8 µM
TGI [12]: > 100 µM
TGI [13]: 8.07 µM
TGI [14]: > 100 µM
TGI [15]: 81.3 µM
TGI [16]: 39.5 µM
TGI [17]: > 100 µM
TGI [18]: > 100 µM
TGI [19]: > 100 µM
TGI [20]: > 100 µM
TGI [21]: > 100 µM
TGI [22]: > 100 µM
TGI [23]: > 100 µM
TGI [24]: > 100 µM
TGI [25]: > 100 µM
TGI [26]: > 100 µM
TGI [27]: > 100 µM
TGI [28]: > 100 µM
TGI [29]: > 100 µM
TGI [30]: 74.7 µM
TGI [31]: 7.71 µM
TGI [32]: 17.2 µM
TGI [33]: 43.2 µM
TGI [34]: > 100 µM
TGI [35]: 5.43 µM
TGI [36]: > 100 µM
TGI [37]: > 100 µM
TGI [38]: > 100 µM
TGI [39]: > 100 µM
TGI [40]: > 100 µM
TGI [41]: > 100 µM
TGI [42]: > 100 µM
TGI [43]: > 100 µM
TGI [44]: > 100 µM
TGI [45]: > 100 µM
TGI [46]: > 100 µM
TGI [47]: > 100 µM
TGI [48]: > 100 µM
TGI [49]: > 100 µM
TGI [50]: > 100 µM
TGI [51]: > 100 µM
TGI [52]: 7.1 µM
TGI [53]: > 100 µM

CN(C)CCCn1c(-c2nonc2N)nc2cnccc21
GI50 [1]: > 25 µM
TGI [1]: > 25 µM
GI50 [2]: 12 µM
TGI [2]: > 25 µM
GI50 [3]: > 25 µM
TGI [3]: > 25 µM
GI50 [4]: > 25 µM
TGI [4]: > 25 µM
GI50 [5]: > 25 µM
TGI [5]: > 25 µM
GI50 [6]: > 25 µM
TGI [6]: > 25 µM
GI50 [7]: > 25 µM
TGI [7]: > 25 µM
GI50 [8]: > 25 µM
TGI [8]: > 25 µM
GI50 [9]: > 25 µM
TGI [9]: > 25 µM
GI50 [54]: > 25 µM
TGI [54]: > 25 µM
GI50 [10]: > 25 µM
TGI [10]: > 25 µM
GI50 [11]: > 25 µM
TGI [11]: > 25 µM
GI50 [12]: > 25 µM
TGI [12]: > 25 µM
GI50 [13]: > 25 µM
TGI [13]: > 25 µM
GI50 [14]: > 25 µM
TGI [14]: > 25 µM
GI50 [15]: 1.96 µM
TGI [15]: > 25 µM
GI50 [16]: 19.1 µM
TGI [16]: > 25 µM
GI50 [17]: > 25 µM
TGI [17]: > 25 µM
GI50 [18]: > 25 µM
TGI [18]: > 25 µM
GI50 [19]: > 25 µM
TGI [19]: > 25 µM
GI50 [55]: > 25 µM
TGI [55]: > 25 µM
GI50 [20]: > 25 µM
TGI [20]: > 25 µM
GI50 [21]: > 25 µM
TGI [21]: > 25 µM
GI50 [22]: > 25 µM
TGI [22]: > 25 µM
GI50 [23]: > 25 µM
TGI [23]: > 25 µM
GI50 [24]: > 25 µM
TGI [24]: > 25 µM
GI50 [25]: > 25 µM
TGI [25]: > 25 µM
GI50 [56]: > 25 µM
TGI [56]: > 25 µM
GI50 [27]: > 4.99 µM
TGI [27]: > 25 µM
GI50 [28]: > 25 µM
TGI [28]: > 25 µM
GI50 [29]: > 25 µM
TGI [29]: > 25 µM
GI50 [30]: > 25 µM
TGI [30]: > 25 µM
GI50 [31]: > 25 µM
TGI [31]: > 25 µM
GI50 [32]: > 25 µM
TGI [32]: > 25 µM
GI50 [33]: > 25 µM
TGI [33]: > 25 µM
GI50 [34]: > 25 µM
TGI [34]: > 25 µM
GI50 [35]: > 25 µM
TGI [35]: > 25 µM
GI50 [36]: > 25 µM
TGI [36]: > 25 µM
GI50 [57]: > 25 µM
TGI [57]: > 25 µM
GI50 [37]: > 5.19 µM
TGI [37]: > 25 µM
GI50 [38]: > 25 µM
TGI [38]: > 25 µM
GI50 [39]: > 25 µM
TGI [39]: > 25 µM
GI50 [40]: > 25 µM
TGI [40]: > 25 µM
GI50 [41]: > 25 µM
TGI [41]: > 25 µM
GI50 [42]: > 25 µM
TGI [42]: > 25 µM
GI50 [43]: > 25 µM
TGI [43]: > 25 µM
GI50 [44]: > 25 µM
TGI [44]: > 25 µM
GI50 [45]: > 25 µM
TGI [45]: > 25 µM
GI50 [46]: > 25 µM
TGI [46]: > 25 µM
GI50 [47]: 8.06 µM
TGI [47]: > 25 µM
GI50 [58]: > 25 µM
TGI [58]: > 25 µM
GI50 [48]: > 25 µM
TGI [48]: > 25 µM
GI50 [59]: > 25 µM
TGI [59]: > 25 µM
GI50 [49]: > 9.98 µM
TGI [49]: > 25 µM
GI50 [50]: > 25 µM
TGI [50]: > 25 µM
GI50 [51]: > 25 µM
TGI [51]: > 25 µM
GI50 [52]: > 25 µM
TGI [52]: > 25 µM
GI50 [53]: > 11.2 µM
TGI [53]: > 25 µM
